One data set concerns the target T1, vanilloid receptor (Rattus norvegicus, UniProt O35433).
T1 construct: DRG nerve cells from the primary culture of 2 days were equilibrated by washing 4 times; endogenous in cells; host or cells: primary culture of dorsal root ganglion neurons from neonatal SD rats
As to the kind of experiment: 45Ca influx test (calcium uptake) in primary cultured DRG neurons, capsaicin 0.5 μM. The format is cell-based. Particulars: rat DRG neurons, capsaicin 0.5 μM, 45Ca; read-out: Antagonist Calcium Uptake Test (IC50). The method, then:
1) Separation of Spinal Dorsal Root Ganglia (DRG) in Newborn Rats and Primary Culture Thereof
Neonatal (2-3 day old or younger than 2-3 day old) SD rats were put in ice for 5 minutes to anesthetize and disinfected with 70% ethanol. […] The DRG were incubated sequentially at 37° C. for 30 mins in 200 U/ml collagenase and 2.5 mg/ml trypsin, separately. The ganglia were washed twice with DME/F12 medium supplemented with 10% horse serum, triturated through a fire-polished Pasteur pipette, filtered through Nitex 80 membrane to obtain single cell suspension and the suspension was washed once more. This was subjected to centrifugation, then resuspended in cell culture medium at certain level of cell density. As the cell culture medium, DME/F12 medium supplemented with 10% horse serum was diluted with identical medium conditioned by C6 glioma cells 2 days on a confluent monolayer (1:1), and NGF (Nerve Growth Factor) was added to adjust 200 ng/ml as final concentration. After the cells were grown 2 days in medium where cytosine arabinoside (Ara-C, 100 μM) was added to kill dividing nonneuronal cells, medium was changed to one without Ara-C. The resuspended cells were plated at a density of 1500-2000 neurons/well onto Terasaki plates previously coated with 10 μg/ml poly-D-ornithine.
2) ^45Ca Influx Experiments
DRG nerve cells from the primary culture of 2 days were equilibrated by washing 4 times with HEPES (10 mM, pH 7.4)-buffered Ca^2+, Mg^2+-free HBSS (H-HBSS). The solution in each well was removed from the individual well. Medium containing the test compound plus capsaicin (final concentration 0.5 μM) and ^45Ca (final concentration 10 μCi/ml) in H-HBSS was added to each well and incubated at room temperature for 10 mins. Terasaki plates were washed five times with H-HBSS and dried at room temperature. To each well, 0.3% SDS (10 μl) was added to elute ^45Ca. After the addition of scintillation cocktail of into each well, the amount of ^45Ca influx into neuron was measured by counting radioactivity.
T1 sequence (O35433 whole entry): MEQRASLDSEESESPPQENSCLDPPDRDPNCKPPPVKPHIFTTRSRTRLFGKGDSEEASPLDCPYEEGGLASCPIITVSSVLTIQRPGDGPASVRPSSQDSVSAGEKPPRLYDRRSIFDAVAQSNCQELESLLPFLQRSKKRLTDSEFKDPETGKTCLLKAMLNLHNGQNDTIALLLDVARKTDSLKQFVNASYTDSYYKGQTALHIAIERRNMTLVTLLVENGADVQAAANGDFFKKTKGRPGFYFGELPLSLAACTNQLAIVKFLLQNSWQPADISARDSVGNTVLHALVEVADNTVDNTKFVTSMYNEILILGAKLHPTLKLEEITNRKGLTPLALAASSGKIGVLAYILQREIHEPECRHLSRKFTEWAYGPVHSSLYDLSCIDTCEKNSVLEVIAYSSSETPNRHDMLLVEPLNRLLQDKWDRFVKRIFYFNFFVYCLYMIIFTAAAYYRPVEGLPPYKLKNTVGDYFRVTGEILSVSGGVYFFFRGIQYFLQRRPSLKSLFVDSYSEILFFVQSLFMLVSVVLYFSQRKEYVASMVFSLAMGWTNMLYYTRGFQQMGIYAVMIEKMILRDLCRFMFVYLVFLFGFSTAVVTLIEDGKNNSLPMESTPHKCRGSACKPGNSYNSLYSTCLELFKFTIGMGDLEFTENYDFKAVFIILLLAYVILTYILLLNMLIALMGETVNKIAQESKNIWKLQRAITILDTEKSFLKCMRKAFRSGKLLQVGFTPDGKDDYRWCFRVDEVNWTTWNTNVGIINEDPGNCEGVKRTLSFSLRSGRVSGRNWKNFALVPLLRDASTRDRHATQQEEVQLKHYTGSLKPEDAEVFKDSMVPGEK
By IC50 is commonly meant the concentration needed to halve the response being measured. As for `CCCNc1cc(C(F)(F)F)ccc1/C=C/C(=O)N[C@H](C)c1cc(F)c(NS(C)(=O)=O)c(F)c1` [Example 1, (R)—N-[1-(3,5-Difluoro-4-methanesulfonylamino-phenyl)-ethyl]-3-(2-propylamino-4-trifluoromethyl-phenyl)-acrylamide], the IC50 amounted to 19 nM.
Same read-out and setting: with `CCNc1cc(F)ccc1/C=C/C(=O)NCc1cc(F)c(NS(C)(=O)=O)c(F)c1` [Example 43, N-(3,5-Difluoro-4-methanesulfonylaminobenzyl)-3-(4-fluoro-2-ethylaminophenyl)acrylamide] the figure was 320 nM; with `CCCCc1cc(C(F)(F)F)ccc1/C=C/C(=O)N[C@H](C)c1ccc(NS(C)(=O)=O)c(F)c1` [Example 36, (R)-3-(2-Butyl-4-trifluoromethyl-phenyl)-N-[1-(3-fluoro-4-methanesulfonylamino-phenyl)-ethyl]-acrylamide], 46 nM; with `CCCCNc1cc(F)ccc1/C=C/C(=O)N[C@H](C)c1cc(F)c(NS(C)(=O)=O)c(F)c1` [Example 45, (R)-3-(2-Butylamino-4-fluoro-phenyl)-N-[1-(3,5-difluoro-4-methanesulfonylamino-phenyl)-ethyl]-acrylamide], 65 nM.
Still for that read-out and setting: to `CCCCc1cc(C(F)(F)F)cc(CCCC)c1/C=C/C(=O)N[C@H](C)c1cc(F)c(NS(C)(=O)=O)c(F)c1` [Example 16, (R)-3-(2,6-Dibutyl-4-trifluoromethyl-phenyl)-N-[1-(3,5-difluoro-4-methanesulfonylamino-phenyl)-ethyl]-acrylamide] belongs 220 nM; to `CS(=O)(=O)Nc1c(F)cc(CNC(=O)/C=C/c2ccc(C(F)(F)F)cc2N2CCCCC2)cc1F` [Example 51, N-(3,5-Difluoro-4-methanesulfonylamino-benzyl)-3-(2-piperidin-1-yl-4-trifluoromethyl-phenyl)-acrylamide], 3300 nM; to `CCCNc1cc(F)ccc1/C=C/C(=O)N[C@H](C)c1cc(F)c(NS(C)(=O)=O)c(F)c1` [Example 29, (R)—N-[1-(3,5-Difluoro-4-methanesulfonylamino-phenyl)ethyl]-3-(4-fluoro-2-propylaminophenyl)-acrylamide], 160 nM.
Still for that read-out and setting: with `CCCCNc1cc(C(F)(F)F)ccc1/C=C/C(=O)N[C@H](C)c1cc(F)c(NS(C)(=O)=O)c(F)c1` [Example 3, (R)-3-(2-Butylamino-4-trifluoromethyl-phenyl)-N-[1-(3,5-difluoro-4-methanesulfonylamino-phenyl)-ethyl]-acrylamide] the figure was 120 nM; with `CCNc1cc(C(F)(F)F)ccc1/C=C/C(=O)N[C@H](C)c1cc(F)c(NS(C)(=O)=O)c(F)c1` [Example 10, (R)—N-[1-(3,5-Difluoro-4-methanesulfonylamino-phenyl)-ethyl]-3-(2-ethylamino-4-trifluoromethyl-phenyl)-acrylamide], 50 nM.
Consider `CCCOc1cc(C(F)(F)F)ccc1/C=C/C(=O)NCc1cc(F)c(NS(C)(=O)=O)c(F)c1` [Example 4, N-(3,5-Difluoro-4-methanesulfonylamino-benzyl)-3-(2-propoxy-4-trifluoromethyl-phenyl)-acrylamide], for which the IC50 is 380 nM.
The same measure, in the same setting: to `CCCNc1cc(C(F)(F)F)ccc1CCC(=O)NCc1cc(F)c(NS(C)(=O)=O)c(F)c1` [Example 56, N-(3,5-difluoro-4-methanesulfonylamino-benzyl)-3-(2-propylamino-4-trifluoromethyl-phenyl)-propionamide] belongs 350 nM; to `CCOc1cc(C(F)(F)F)ccc1/C=C/C(=O)NCc1cc(F)c(NS(C)(=O)=O)c(C(F)(F)F)c1` [Example 15, 3-(2-Ethoxy-4-trifluoromethyl-phenyl)-N-(3-fluoro-4-methanesulfonylamino-5-trifluoromethyl-benzyl)-acrylamide], 2400 nM; to `CCCCOc1cc(C(F)(F)F)ccc1/C=C/C(=O)N[C@H](C)c1cc(F)c(NS(C)(=O)=O)c(F)c1` [Example 31, (R)-3-(2-Butoxy-4-trifluoromethyl-phenyl)-N-[1-(3,5-difluoro-4-methanesulfonylamino-phenyl)-ethyl]-acrylamide], 110 nM.
The same measure, in the same setting: with `CCCCNc1cc(F)ccc1/C=C/C(=O)NCc1cc(F)c(NS(C)(=O)=O)c(F)c1` [Example 46, 3-(2-Butylamino-4-fluoro-phenyl)-N-(3,5-difluoro-4-methanesulfonylamino-benzyl)-acrylamide] the figure was 180 nM; with `CCCc1cc(F)ccc1/C=C/C(=O)N[C@H](C)c1cc(F)c(NS(C)(=O)=O)c(F)c1` [Example 53, (R)—N-[1-(3,5-Difluoro-4-methanesulfonylamino-phenyl)-ethyl]-3-(4-fluoro-2-propyl-phenyl)-acrylamide], 170 nM; with `CCCc1cc(C(F)(F)F)ccc1/C=C(\C)C(=O)N[C@H](C)c1ccc(NS(C)(=O)=O)c(F)c1` [Example 49, (R)—N-[1-(3-Fluoro-4-methanesulfonylamino-phenyl)-ethyl]-2-methyl-3-(2-propyl-4-trifluoromethyl-phenyl)-acrylamide], 1400 nM.
On the same count and under the same terms, with `CCc1cc(C(F)(F)F)cc(CC)c1/C=C/C(=O)N[C@H](C)c1cc(F)c(NS(C)(=O)=O)c(F)c1` [Example 17] the figure was 140 nM; with `CCCCOc1cc(F)ccc1/C=C/C(=O)N[C@H](C)c1cc(F)c(NS(C)(=O)=O)c(F)c1` [Example 33, (R)-3-(2-Butoxy-4-fluoro-phenyl)-N-[1-(3,5-difluoro-4-methanesulfonylamino-phenyl)-ethyl]-acrylamide], 150 nM; with `CCC(C)Oc1cc(C(F)(F)F)ccc1/C=C/C(=O)N[C@H](C)c1cc(F)c(NS(C)(=O)=O)c(F)c1` (stereo partly drawn) [Example 39, (R)-3-(2-sec-Butoxy-4-trifluoromethyl-phenyl)-N-[1-(3,5-difluoro-4-methanesulfonylamino-phenyl)-ethyl]-acrylamide], 22 nM.
In the case of `CCCNc1cc(F)ccc1/C=C/C(=O)NCc1cc(F)c(NS(C)(=O)=O)c(F)c1` [Example 30], the IC50 was 410 nM.
The same measure, in the same setting: to `CCOc1cc(C(F)(F)F)ccc1/C=C/C(=O)N[C@H](C)c1cc(F)c(NS(C)(=O)=O)c(F)c1` [Example 7, (R)—N-[1-(3,5-Difluoro-4-methanesulfonylamino-phenyl)-ethyl]-3-(2-ethoxy-4-trifluoromethyl-phenyl)-acrylamide] belongs 110 nM.

System in another data set: not listed separately
As to the kind of experiment: PK study in rats, single oral administration. The format is in vivo, rat. On the set-up: AUC: concentration or dose not given beside the values. As to conditions: rat, single oral administration, plasma, Table 2. The method, then:
Pharmacokinetics of compounds in rats were analyzed using the following experiment. Rats were fasted overnight prior to administration and until approximately 4 hours after administration. Rats were given a single oral administration of compound at same dose. Administration volume was 10 ml/kg. Blood samples were collected from the retro-orbital sinus at various times over the following 7 hrs. Immediately after each collection, plasmas were separated from blood cells by centrifugation and stored at −20° C. until the analysis was performed. The plasma samples were analyzed using a reverse phase high-performance chromatography (HPLC) method.
For orientation: AUC means the area under the concentration-time curve, a measure of exposure. In general, Cmax refers to the highest concentration seen after dosing. The term Tmax denotes the time from dosing to the highest level. Consider `CCCNc1cc(C(F)(F)F)ccc1/C=C/C(=O)N[C@H](C)c1cc(F)c(NS(C)(=O)=O)c(F)c1` [Example 1, (R)—N-[1-(3,5-Difluoro-4-methanesulfonylamino-phenyl)-ethyl]-3-(2-propylamino-4-trifluoromethyl-phenyl)-acrylamide], for which the area under the curve (AUC) stood at 1940 ng·h/mL, the highest level (Cmax) was 466 ng/mL and the Tmax came out at 210 min.

Staying with this data set, now noted: rat, single oral administration, plasma, Table 2, read-out: T½ (converted).
`CCCNc1cc(C(F)(F)F)ccc1/C=C/C(=O)N[C@H](C)c1cc(F)c(NS(C)(=O)=O)c(F)c1` [Example 1, (R)—N-[1-(3,5-Difluoro-4-methanesulfonylamino-phenyl)-ethyl]-3-(2-propylamino-4-trifluoromethyl-phenyl)-acrylamide]: the half-life is 83.9 min.

The data set is the same for the next values; noted with them: rat, single oral administration, plasma, Table 3.
For the molecule `CC(C)(C)c1ccc(/C=C/C(=O)NCc2cc(F)c(NS(C)(=O)=O)c(F)c2)cc1` [Comp Cpd B, reference compound], the AUC stood at 72 ng·h/mL and the Tmax stood at 30 min.

The data set is the same for the next values; noted with them: rat, single oral administration, plasma, Table 3, detection limit 0.100 mcg/ml.
`C=Cc1cc(CNC(=O)/C=C/c2ccc(C(C)(C)C)cc2NC(C)C)cc(F)c1NS(C)(=O)=O` [Comp Cpd C, reference compound] gave a Cmax below 100 ng/mL.
In the case of `CC(C)(C)c1ccc(/C=C/C(=O)NCc2cc(F)c(NS(C)(=O)=O)c(F)c2)cc1` [Comp Cpd B, reference compound], the Cmax came out at 69 ng/mL.
`C=Cc1cc(CNC(=O)/C=C/c2ccc(C(C)(C)C)cc2)cc(F)c1NS(C)(=O)=O` [Comp Cpd A, reference compound] showed a Cmax below 100 ng/mL.

Staying with this data set, now noted: rat, single oral administration, plasma, Table 3, read-out: T½ (converted).
For `CC(C)(C)c1ccc(/C=C/C(=O)NCc2cc(F)c(NS(C)(=O)=O)c(F)c2)cc1` [Comp Cpd B, reference compound], the half-life is 27.7 min.
